Measured values taken from patent publication US20080305175A1, “Micro-Container” (AGENCY FOR SCIENCE, TECHNOLOGY AND RESEARCH, priority 2006, published 2008).
Counter-ions that a name gives are not always drawn.

Assays:
[1] = In vivo release test, DOX concentration in blood after subcutaneous administration; parameters: species or system Male Sprague Dawley rats; settings: rat, 1 mg DOX in normal saline subcutaneously, ~20 mL blood in a rat
Experimental: Male Sprague Dawley rats (8 weeks, average weight 250 g) were stabilized for 1 week with free access to food and water. Microcontainers loaded with DOX were subcutaneously administered into the rats at a level of 3.7 mg/Kg (10 mg microspheres containing 1 mg DOX were freshly dispersed in 0.5 mL of normal saline solution for each rat). […] The blood samples were separated by centrifugation at 2000 g at 4° C. for 10 min and the obtained plasma samples were then stored at −20° C. prior to analysis. Just before the DOX extraction, the plasma samples were thawed followed by adding 3 ml of 70% ethanol and 30% 0.45 M HCl aqueous solution by volume. The obtained suspensions were mixed for 30 s to form gels. These gels were first stored at 4° C. for 24 hours in dark, and then centrifuged at 10,000 g for 15 min. The supernatants were transferred into glass cuvettes and allowed to warm to room temperature for the determination of DOX concentration by a fluorescence spectrophotometer.

[2] = cited from earlier work

Compound | DOX concentration level that can be reached in blood [1] [µg/mL] | solubility in water ([2]; water) [µg/mL] | stability versus pH ([2]; pH of more than 6.5)
COc1cccc2c1C(=O)c1c(O)c3c(c(O)c1C2=O)C[C@@](O)(C(=O)CO)C[C@@H]3O[C@H]1C[C@H](N)[C@H](O)[C@H](C)O1 [DOX, Doxorubicin hydrochloride] | 50 | 10000 | 
COc1cccc2c1C(=O)c1c(O)c3c(c(O)c1C2=O)C[C@@](O)(C(=O)CO)C[C@@H]3O[C@H]1C[C@H](N)[C@H](O)[C@H](C)O1 [Doxorubicin, doxorubicin] |  |  | unstable
